Measurements taken from patent US9963480B2, “Nucleoside phosphoramidate compound and use thereof” (priority 2013, dated 2018).

Experiments:
Assay type in all cases: cell-based
[1] = system: HCV 1b replicon; assay: Antiviral activity assay in HCV replicon system (Huh7 1b cells, luciferase reporter); conditions: Hepatitis C virus, Huh-7; Huh7 1b cells with HCV 1b replicon, Bright-Glo luciferase, 72 h; read-out: EC50
Description: The cell line Huh7 1b, which was provided by WuXi AppTec Co., Ltd. in Shanghai, contained an HCV 1b replicon with a stable Luciferase (Luc) reporter. It was constructed by cloning HCV nonstructural protein gene, neo (G418 resistance) and luciferase reporter gene into the pBR vector through gene recombination technology. Then the vector carrying the HCV replicon was transfected into Huh7 cells, and the transfected Huh7 cells were screened by G418 resistance. The HCV replicon was stably replicated, and the related protein and luciferase were stably expressed in Huh7 cells. The cells model was used for in-vitro screen of anti-HCV compounds. The anti-HCV activity of the compounds was measured by detecting the level of luciferase expression. See Lohmann V, et al. 1999. Replication of subgenomic hepatitis C virus RNAs in a hepatoma cell line. Science. 285(5424):110-113.
The control drug used in this experimental example was the compound of Example 25 in WO 2008/121634 (PCT/US2008/058183), i.e. (S)-2-{[(2R,3R,4R,5R)-5-(2,4-dioxo-3,4-dihydro-2H-pyrimidin-1-yl)-4-fluoro-3-hydr oxy-4-methyl-tetrahydro-furan-2-ylmethoxy]-phenoxy-phosphorylamino}-propanoic acid isopropyl ester. This compound was prepared according to the method described in J. Org. chem, 2011, 76, 8311-8319, and identified by H-NMR and mass spectrometry.
• 2.1 compound preparation: adding each of the compounds listed in Table 2 to 96-well plates using a POD™ 810 Automation Platform (LabCyte Corporation, USA), with 10 μM of each of the compounds as a starting concentration and in duplicate; serially diluting each of the compounds in 3-fold fashion and formulating 10 concentrations, with the final concentration of DMSO being 0.5%; • 2.2 cells preparation: seeding the Huh71b cells into 96-well plates respectively with a volume of 125 μl and 8×10^3 cells/well, and incubating in a 37° C., 5% CO2 incubator for 72 h; • 2.3 detection of cell activity: adding 30 μl per cell of the CellTiter-Fluor™ Reagent, incubating in a 37° C., 5% CO2 incubator for 1 h, measuring the fluorescence signal values with a fluorometer, and using the obtained data for calculation of cytotoxicities of the compounds; • 2.4 Bright-Glo detection: adding 100 μl per well of the Bright-Glo™ Luciferase Substrate, using a chemiluminescence detection system EnVision™ (PerkinElmer, USA) to detect the fluorescence signal values within 5 minutes, and using the obtained data for calculation of potencies of the compounds. • 2.5 data processing: converting the obtained data to a percentage of cell viability (Viability %) using the following formula:
[formula] • CPD: fluorescence signal value of the well added with the compound • ZPE (Zero percent effect): fluorescence signal value of the control well with zero percent effect. • Processing the raw data to calculate a percentage of inhibition (Inhibition %) using the following formula:
[formula] • CPD: fluorescence signal value of the well added with the compound; • HPE (Hundred percent effect): fluorescence signal value of the control well with hundred percent effect; • ZPE (Zero percent effect): fluorescence signal value of the control well with zero percent effect.
The inhibition percentage was processed by the GraphPad Prism software to obtain the corresponding curves and EC50 values.

[2] = system: J399EM (HCV genotype 2a) virus; assay: Antiviral activity assay in the cell-culture-derived infectious HCV (HCVcc) system; conditions: for half maximal effective concentration (EC50) against the HCVcc GT2a viruses, in words: in vitro HCVcc system
Experimental: The compound according to the above example 1 was used in this experiment. The compound was formulated into a 10 mM mother liquid with DMSO, diluted to 500 nM by DMEM complete culture medium containing 0.5% of DMSO, followed by 4-fold dilution successively, and six concentrations were obtained. The positive control was diluted to 10 μM by DMEM complete culture medium containing 0.5% of DMSO, followed by 4-fold successively, and six concentrations were obtained.
(§1) Huh 7.5.1 cells, provided by Shanghai Institute of Materia Medica, Chinese Academy of Sciences.
J399EM (HCV genotype 2a) virus, i.e. a full length HCV mutant strain transfected with EGFP (enhanced green fluorescent protein) was used, which had the same infection capacity as the wild type JFH-1. The NS5A-EGFP fusion protein fluorescence was observed directly in infected cells by inserting EGFP coding sequence in the NS5A region. J399EM was provided by Shanghai Institute of Materia Medica, Chinese Academy of Sciences.
(§2) • 1) Huh 7.5.1 cells preparation: collecting the Huh7.5.1 cells in logarithmic phase, resuspending in DMEM complete culture medium, seeding into 96-well plates (7×10^3 cells/well), and incubating in a 37° C., 5% CO2 incubator for 24 h; • 2) virus infection: resuspending J399EM viruses in DMEM complete culture medium, adding the virus supernatant (MOI≈0.1) to the above 96-well plates, and washing with PBS after 8 hours of infection; • 3) drug treatment: adding various concentrations of the compounds to the Huh7.5.1 cells infected by J399EM viruses, with each concentration in duplicate; setting the control group with zero percent effect (ZPE) and the control group with hundred percent effect (HPE); replacing the compound with the DMEM complete culture medium containing 0.5% DMSO in ZPE group, and using the cells not infected with viruses in HPE group. • 4) cells incubation: incubating the 96-well plates in a 37° C., 5% CO2 incubator for 72 hr; • 5) anti-HCV activity detection: reading the relative fluorescence units (RFU) of each well by EnVision® Multi label Plate readers after incubation, and calculating the anti-HCV activity of the compounds using the obtained data according to the following formula: Inhibition %=(RFUZPE−RFUCPD)/(RFUZPE−RFUHPE)×100 • wherein RFUZPE represents the relative fluorescence units of the control group with zero percent effect and RFUCPD represents the relative fluorescence units of the corresponding compound group, and RFUHPE represents the relative fluorescence units of the control group with hundred percent effect. • 6) Cell viability detection: adding MTT solution to each well, incubating in a 37° C., 5% CO2 incubator for 4 hr, followed by addition of MTT dissolving solution, reading optical density (OD) of each well at 570 nm by the Multi label Plate readers after 6 hr, calculating the cytotoxicity of the compounds using the obtained data according to the following formula: Viability %=ODCPD/ODZPE×100 • wherein ODZPE represents the optical density of the control group with zero percent effect, and ODCPD represents the optical density of the corresponding compound; • 7) Data processing: processing the Inhibition %, Viability % by GraphPad Prism Software respectively, and obtaining the half maximal effective concentration (EC50) values and half maximal cytotoxic concentration (CC50) values of the compounds against the HVCcc GT2a viruses.

[3] = system: Huh 7.5.1 cells; assay: Cell viability detection (MTT) in the HCVcc system; conditions: in vitro HCVcc system
Experimental: as §1, §2

[4] = Cell viability detection (MTT) in the HCVcc system; conditions: human, Huh 7.5.1 cells infected with J399EM virus (HCVcc); Huh 7.5.1 cells, MTT, 72 hr
Experimental: as §1, §2

| SMILES | EC50 [1] [nM] | half maximal effective concentration (EC50) against the HCVcc GT2a viruses, in words [2] | half maximal cytotoxic concentration (CC50), in words [3] | EC50 ([2]; Hepatitis C virus, Huh-7.5.1, 72 h) [nM] | CC50 at 72 h [4] [nM] |
| --- | --- | --- | --- | --- | --- |
| CC(C)OC(=O)[C@H](C)NP(=O)(OC[C@H]1O[C@@H](n2ccc(=O)[nH]c2=O)[C@](C)(F)[C@@H]1O)Oc1ccc(-c2csnn2)cc1 (stereo partly shown) [Example 12] | 637 | low | high |  |  |
| CC(C)OC(=O)[C@H](C)NP(=O)(OC[C@H]1O[C@@H](n2ccc(=O)[nH]c2=O)[C@](C)(F)[C@@H]1O)Oc1ccc(-c2nccs2)cc1 (stereo partly shown) [Example 16] | 3870 | low | high |  |  |
| CC(C)OC(=O)[C@H](C)NP(=O)(OC[C@H]1O[C@@H](n2ccc(=O)[nH]c2=O)[C@](C)(F)[C@@H]1O)Oc1ccccc1 (stereo partly drawn) [Positive control, (S)-2-{[(2R,3R,4R,5R)-5-(2,4-dioxo-3,4-dihydro-2H-pyrimidin-1-yl)-4-fluoro-3-hydroxy-4-methyl-tetrahydro-furan-2-ylmethoxy]-phenoxy-phosphorylamino}-propanoic acid isopropyl ester, reference compound] | 117 |  |  | 173 | > 10000 |
| CC(C)OC(=O)[C@H](C)NP(=O)(OC[C@H]1O[C@@H](n2ccc(=O)[nH]c2=O)[C@](C)(F)[C@@H]1O)Oc1cccc(-c2ccccc2)c1 (stereo partly drawn) [Example 2, (2S)-2-((([1,1′-biphenyl]-3-yloxy)(((2R,3R,4R,5R)-5-(2,4-dioxo-3,4-dihydropyrimidin-1(2H)-yl)-4-fluoro-3-hydroxy-4-methyltetrahydrofuran-2-yl)methoxy)phosphoryl)amino)propanoic Acid Isopropyl Ester] | 105 | low | high |  |  |
| CC(C)OC(=O)[C@H](C)NP(=O)(OC[C@H]1O[C@@H](n2ccc(=O)[nH]c2=O)[C@](C)(F)[C@@H]1O)Oc1ccc(-c2ccc(F)cc2)cc1 (stereo partly shown) [Example 5] | 61 | low | high |  |  |
| CC(C)OC(=O)[C@H](C)NP(=O)(OC[C@H]1O[C@@H](n2ccc(=O)[nH]c2=O)[C@](C)(F)[C@@H]1O)Oc1ccc(-c2ccc(C#N)cc2)cc1 (stereo partly shown) [Example 18] | 314 | low | high |  |  |
| CC(C)OC(=O)[C@H](C)NP(=O)(OC[C@H]1O[C@@H](n2ccc(=O)[nH]c2=O)[C@](C)(F)[C@@H]1O)Oc1ccc(-c2ccccc2)c(F)c1 (stereo partly drawn) [Example 28, (2S)-2-(((2-fluoro-[1,1′-biphenyl]-4-yloxy)(((2R,3R,4R,5R)-5-(2,4-dioxo-3,4-dihydropyrimidin-1(2H)-yl)-4-fluoro-3-hydroxy-4-methyltetrahydrofuran-2-yl)methoxy)phosphoryl)amino)propanoic Acid Isopropyl Ester] | 123 | low | high |  |  |
| COc1cc(/C=C/c2ccc(OP(=O)(N[C@@H](C)C(=O)OC(C)C)OC[C@H]3O[C@@H](n4ccc(=O)[nH]c4=O)[C@](C)(F)[C@@H]3O)cc2)cc(OC)c1 (stereo in doubt) [Example 8, (2S)-2-((((E)-4-(3,5-dimethoxyphenylethenyl)phen-1-yloxy)(((2R,3R,4R,5R)-5-(2,4-dioxo-3,4-dihydropyrimidin-1(2H)-yl)-4-fluoro-3-hydroxy-4-methyltetrahydrofuran-2-yl)methoxy)phosphoryl)amino)propanoic Acid Isopropyl Ester] | 411 |  |  |  |  |
| CC(C)OC(=O)[C@H](C)NP(=O)(OC[C@H]1O[C@@H](n2ccc(=O)[nH]c2=O)[C@](C)(F)[C@@H]1O)Oc1ccc(-c2cscn2)cc1 (stereo partly drawn) [Example 38, (2S)-2-(((4-(thiazol-4-yl)phenyloxy)(((2R,3R,4R,5R)-5-(2,4-dioxo-3,4-dihydropyrimidin-1(2H)-yl)-4-fluoro-3-hydroxy-4-methyltetrahydrofuran-2-yl)methoxy)phosphoryl)amino)propanoic Acid Isopropyl Ester] | 100 | low | high |  |  |
| COc1ccc(-c2ccc(OP(=O)(N[C@@H](C)C(=O)OC(C)C)OC[C@H]3O[C@@H](n4ccc(=O)[nH]c4=O)[C@](C)(F)[C@@H]3O)cc2)cc1 (stereo partly shown) [Example 36] | 73 |  |  |  |  |
| C[C@H](NP(=O)(OC[C@H]1O[C@@H](n2ccc(=O)[nH]c2=O)[C@](C)(F)[C@@H]1O)Oc1cccc2c1CCCC2)C(=O)OC(C)(C)C (stereo partly drawn) [Example 15, (2S)-2-(((5,6,7,8-tetrahydronaphthalen-1-yloxy)(((2R,3R,4R,5R)-5-(2,4-dioxo-3,4-dihydropyrimidin-1(2H)-yl)-4-fluoro-3-hydroxy-4-methyltetrahydrofuran-2-yl)methoxy)phosphoryl)amino)propanoic Acid t-butyl Ester] | > 3330 |  |  |  |  |
| Cc1cc(-c2ccc(OP(=O)(N[C@@H](C)C(=O)OC(C)C)OC[C@H]3O[C@@H](n4ccc(=O)[nH]c4=O)[C@](C)(F)[C@@H]3O)cc2)ccc1F (stereo partly drawn) [Example 41, (2S)-2-((((4′-fluoro-3′-methyl-[1,1′-biphenyl]-4-yl)oxy)(((2R,3R,4R,5R)-5-(2,4-dioxo-3,4-dihydropyrimidin-1(2H)-yl)-4-fluoro-3-hydroxy-4-methyltetrahydrofuran-2-yl)methoxy)phosphoryl)amino)propanoic Acid Isopropyl Ester] | 50 |  |  |  |  |
